In US10351573B2, “Benzoic acid, benzoic acid derivatives and heteroaryl carboxylic acid conjugates of hydrocodone, prodrugs, methods of making and uses thereof” (KemPharm, Inc., priority 2009, dated 2019):
Counter-ions that a name gives are not always drawn. Like-named read-outs stand apart in the source and are kept apart here.

Legend:
[1] = Example 22: intranasal crushed / oral intact tablets human PK study vs HB/APAP
[2] = Example 23: Bz-HC.HCl API single dose intranasal human PK study vs HB API; format: in vivo, humans; details: 13.34 mg Bz-HC•HCl API; for AUC(0-t) / AUC(0-inf) / half-life / Cmax: 13.34 mg
Excerpt: This was a randomized, double blind, single dose, two way crossover, single center study in recreational non-dependent opioid users. Subjects participated in a Screening Phase (Visit 1), Naloxone Challenge Test (Visit 2, Check in), Treatment Phase (Visit 2, inpatient) and Follow up Phase (Visit 3).
A sufficient number of male and female subjects between the ages of 18-55 years were to be screened in order to enroll approximately 30 subjects into the Treatment Phase to ensure 24 completers.

[3] = Water solubility / feasibility of intranasal or intravenous dosing; details: water
[4] = humans, fasted, oral, equimolar doses

For `COc1ccc2c3c1O[C@H]1C(OC(=O)c4ccccc4)=CC[C@H]4[C@@H](C2)N(C)CC[C@]314` [Bz-HC•HCl, benzoate-hydrocodone hydrochloride], the half-life ([1]; human, plasma, inhaled or intranasal) was 1.11 h, the “Tlast of Bz-HC (time of the last quantifiable concentration), median” value ([1]; intranasal crushed Bz-HC.HCl/APAP 13.34/650 mg) was 6.22 h and the “Bz-HC plasma concentrations at 24 hours post-dose (in words)” value ([2]; all subjects) was “below the limit of quantification”. It also gave a Tmax ([2]; both sexes, human, plasma, inhaled or intranasal, read-out: Tmax of Bz-HC, Median (Min-Max)) of 0.25 h, an AUC(0-t) ([2]; both sexes, human, plasma, inhaled or intranasal, n = 22, read-out: AUC0-4 h of Bz-HC, Mean (SD)) of 3.14 ng·h/mL and an AUC(0-t) ([2]; both sexes, human, plasma, inhaled or intranasal, n = 22, read-out: AUC0-4 h of Bz-HC, Median (Min-Max)) of 2.36 ng·h/mL. The AUC(0-t) ([2]; both sexes, human, plasma, inhaled or intranasal, n = 22, read-out: AUC0-6 h of Bz-HC, Mean (SD)) was 3.4 ng·h/mL, the AUC(0-t) ([2]; both sexes, human, plasma, inhaled or intranasal, n = 22, read-out: AUC0-6 h of Bz-HC, Median (Min-Max)) was 2.56 ng·h/mL and the AUC(0-t) ([2]; both sexes, human, plasma, inhaled or intranasal, n = 22, read-out: AUC0-8 h of Bz-HC, Mean (SD)) was 3.51 ng·h/mL. For the same compound, the AUC(0-t) ([2]; both sexes, human, plasma, inhaled or intranasal, n = 22, read-out: AUC0-8 h of Bz-HC, Median (Min-Max)) was 2.62 ng·h/mL, the AUC(0-t) ([2]; both sexes, human, plasma, inhaled or intranasal, n = 22, read-out: AUC0-10 h of Bz-HC, Mean (SD)) was 3.56 ng·h/mL and the AUC(0-t) ([2]; both sexes, human, plasma, inhaled or intranasal, n = 22, read-out: AUC0-10 h of Bz-HC, Median (Min-Max)) was 2.64 ng·h/mL. It also gave an AUC(0-t) ([2]; both sexes, human, plasma, inhaled or intranasal, n = 22, read-out: AUC0-12 h of Bz-HC, Mean (SD)) of 3.59 ng·h/mL, an AUC(0-t) ([2]; both sexes, human, plasma, inhaled or intranasal, n = 22, read-out: AUC0-12 h of Bz-HC, Median (Min-Max)) of 2.64 ng·h/mL and an AUC(0-t) ([2]; both sexes, human, plasma, inhaled or intranasal, n = 22, read-out: AUC0-24 h of Bz-HC, Mean (SD)) of 3.61 ng·h/mL. For the same compound, the AUC(0-t) ([2]; both sexes, human, plasma, inhaled or intranasal, n = 22, read-out: AUC0-24 h of Bz-HC, Median (Min-Max)) was 2.65 ng·h/mL, the AUC(0-inf) ([2]; both sexes, human, plasma, inhaled or intranasal, n = 22, read-out: AUCinf of Bz-HC, Mean (SD)) was 3.62 ng·h/mL and the AUC(0-inf) ([2]; both sexes, human, plasma, inhaled or intranasal, n = 22, read-out: AUCinf of Bz-HC, Median (Min-Max)) was 2.65 ng·h/mL. It also gave a half-life ([2]; both sexes, human, plasma, inhaled or intranasal, n = 22, read-out: t1/2 of Bz-HC, Mean (SD) (converted)) of 1.42 h, a half-life ([2]; both sexes, human, plasma, inhaled or intranasal, n = 22, read-out: t1/2 of Bz-HC, Median (Min-Max) (converted)) of 1.3 h and an AUC(0-t) ([2]; both sexes, human, plasma, inhaled or intranasal, n = 23, read-out: AUC0-1.5 h of Bz-HC, Mean (SD)) of 2.06 ng·h/mL. The AUC(0-t) ([2]; both sexes, human, plasma, inhaled or intranasal, n = 23, read-out: AUC0-1.5 h of Bz-HC, Median (Min-Max)) was 1.68 ng·h/mL, the AUC(0-t) ([2]; both sexes, human, plasma, inhaled or intranasal, n = 23, read-out: AUC0-2 h of Bz-HC, Mean (SD)) was 2.39 ng·h/mL and the AUC(0-t) ([2]; both sexes, human, plasma, inhaled or intranasal, n = 23, read-out: AUC0-2 h of Bz-HC, Median (Min-Max)) was 1.93 ng·h/mL. For the same compound, the AUC(0-t) ([2]; both sexes, human, plasma, inhaled or intranasal, n = 23, read-out: AUC0-3 h of Bz-HC, Mean (SD)) was 2.79 ng·h/mL, the AUC(0-t) ([2]; both sexes, human, plasma, inhaled or intranasal, n = 23, read-out: AUC0-3 h of Bz-HC, Median (Min-Max)) was 2.19 ng·h/mL and the AUC(0-t) ([2]; both sexes, human, plasma, inhaled or intranasal, read-out: AUC0-0.0833 h of Bz-HC, Mean (SD)) was 0.0153 ng·h/mL. The AUC(0-t) ([2]; both sexes, human, plasma, inhaled or intranasal, read-out: AUC0-0.5 h of Bz-HC, Mean (SD)) was 0.7 ng·h/mL, the AUC(0-t) ([2]; both sexes, human, plasma, inhaled or intranasal, read-out: AUC0-0.5 h of Bz-HC, Median (Min-Max)) was 0.666 ng·h/mL and the AUC(0-t) ([2]; both sexes, human, plasma, inhaled or intranasal, read-out: AUC0-0.75 h of Bz-HC, Mean (SD)) was 1.15 ng·h/mL. It also gave an AUC(0-t) ([2]; both sexes, human, plasma, inhaled or intranasal, read-out: AUC0-0.75 h of Bz-HC, Median (Min-Max)) of 0.977 ng·h/mL, an AUC(0-t) ([2]; both sexes, human, plasma, inhaled or intranasal, read-out: AUC0-1 h of Bz-HC, Mean (SD)) of 1.5 ng·h/mL and an AUC(0-t) ([2]; both sexes, human, plasma, inhaled or intranasal, read-out: AUC0-1 h of Bz-HC, Median (Min-Max)) of 1.24 ng·h/mL. It also gave an AUC(0-t) ([2]; both sexes, human, plasma, inhaled or intranasal, read-out: AUClast of Bz-HC, Mean (SD)) of 3.24 ng·h/mL, an AUC(0-t) ([2]; both sexes, human, plasma, inhaled or intranasal, read-out: AUClast of Bz-HC, Median (Min-Max)) of 2.41 ng·h/mL and a Cmax ([2]; both sexes, human, plasma, inhaled or intranasal, read-out: Cmax of Bz-HC, Mean (SD)) of 2.41 ng/mL. The Cmax ([2]; both sexes, human, plasma, inhaled or intranasal, read-out: Cmax of Bz-HC, Median (Min-Max)) was 2.16 ng/mL, the concentration at […] ([2]; both sexes, human, plasma, other: intranasal, at 0.25 hour post-dose, read-out: highest mean (SD) plasma concentration of Bz-HC) was 2.01 ng/mL and the AUC(0-t) ([2]; both, human, plasma, inhaled or intranasal, AUC0-[…] of Bz-HC, Mean (SD), read-out: AUC0-0.25 h of Bz-HC, Mean (SD)) was 0.213 ng·h/mL. The AUC(0-t) ([2]; both, human, plasma, inhaled or intranasal, AUC0-[…] of Bz-HC, Median (Min-Max), read-out: AUC0-0.25 h of Bz-HC, Median (Min-Max)) was 0.197 ng·h/mL, the “water solubility (in words)” value [3] was “much less soluble in water than the hydrocodone bitartrate” and the “bioequivalence to Norco (in words)” value [4] was “bioequivalent”.
